Here are results for six compounds from the supplement of paper PMC6125532.

The test system of assay [1] is Mycobacterium tuberculosis CRY-7; CRY-18. The method, then: (§1)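 Resazurin microtiter assay (REMA) MICs of anti-TB drugs against 19 EQA Mycobacterium tuberculosis strains (clinical or proficiency isolates plus H37Rv). Drugs were tested in doubling dilutions. Each value is the consensus of two measurements; where they disagreed the lower value was taken.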
Assay [2] concerns Mycobacterium tuberculosis CRY-28. How it is done:
as §1

Assay [3] relates to Mycobacterium tuberculosis CRY-2; CRY-25. How it is done:
as §1

Assay [4] relates to Mycobacterium tuberculosis CRY-14. The method, then: as §1
Assay [5] concerns Mycobacterium tuberculosis CRY-5; CRY-10. How it is done:
as §1

For assay [6], the system named is Mycobacterium tuberculosis CRY-23. The method, then:
as §1

The subject of assay [7] is Mycobacterium tuberculosis CRY-9; CRY-22. How it is done: as §1
In assay [8] the test system is Mycobacterium tuberculosis CRY-12; CRY-24. The method, then: as §1
Assay [9] concerns Mycobacterium tuberculosis CRY-19. How it is done: as §1
The test system of assay [10] is Mycobacterium tuberculosis CRY-4; CRY-30. The method, then:
as §1

The test system of assay [11] is Mycobacterium tuberculosis CRY-8; CRY-13. The method, then:
as §1

The subject of assay [12] is Mycobacterium tuberculosis CRY-27. How it is done:
as §1

The test system of assay [13] is Mycobacterium tuberculosis CRY-26. How it is done:
as §1

In assay [14] the test system is Mycobacterium tuberculosis CRY-6; CRY-29. How it is done: as §1
The test system of assay [15] is Mycobacterium tuberculosis CRY-15; CRY-21. The method, then: as §1
Assay [16] concerns Mycobacterium tuberculosis CRY-20. How it is done:
as §1

The test system of assay [17] is Mycobacterium tuberculosis CRY-1; CRY-17. How it is done:
as §1

Assay [18] concerns Mycobacterium tuberculosis CRY-3; CRY-11. How it is done:
as §1

For assay [19], the system named is Mycobacterium tuberculosis CRY-16. How it is done:
as §1

≈ marks a conversion by molar mass, not a printed value.

Take `NCC[C@H](O)C(=O)N[C@@H]1C[C@H](N)[C@@H](O[C@H]2O[C@H](CN)[C@@H](O)[C@H](O)[C@H]2O)[C@H](O)[C@H]1O[C@H]1O[C@H](CO)[C@@H](O)[C@H](N)[C@H]1O` [Amikacin]: the “MIC (REMA)” value in assay [1] is greater than 16 µg/mL; in assay [2] it was 0.25 µg/mL (≈ 0.427 µM); in assay [3] it was 0.25 µg/mL (≈ 0.427 µM); in assay [4] it was greater than 16 µg/mL; in [5], 0.25 µg/mL (≈ 0.427 µM); in [6], 0.125 µg/mL (≈ 0.213 µM). Besides, the “MIC (REMA)” value is 0.25 µg/mL (≈ 0.427 µM) in assay [7], greater than 16 µg/mL in assay [8] and 0.25 µg/mL (≈ 0.427 µM) in assay [9].

On to `COc1nc2ccc(Br)cc2cc1[C@@H](c1ccccc1)[C@@](O)(CCN(C)C)c1cccc2ccccc12` [Bedaquiline], for which the “MIC (REMA)” value in [10] turned out to be 0.015 µg/mL (≈ 0.027 µM); in assay [11] it was 0.06 µg/mL (≈ 0.108 µM); in [1] it was 0.06 µg/mL (≈ 0.108 µM); in [2] it was 0.015 µg/mL (≈ 0.027 µM); in [12], 0.06 µg/mL (≈ 0.108 µM); in [3], 0.06 µg/mL (≈ 0.108 µM). For the same compound, the “MIC (REMA)” value in [13] was 0.03 µg/mL (≈ 0.054 µM); in assay [4] it was no more than 0.004 µg/mL; in assay [14] it was 0.03 µg/mL (≈ 0.054 µM); in assay [15] it was 2 µg/mL (≈ 3.6 µM); in [5] it was 0.015 µg/mL (≈ 0.027 µM); in assay [16] it was 0.03 µg/mL (≈ 0.054 µM). Besides, the “MIC (REMA)” value in assay [17] came out at 0.06 µg/mL (≈ 0.108 µM); in assay [6] it was 0.008 µg/mL (≈ 0.0144 µM); in [18], 0.12 µg/mL (≈ 0.216 µM); in assay [7] it was 0.25 µg/mL (≈ 0.45 µM); in assay [8], 0.5 µg/mL (≈ 0.9 µM); in assay [19], 0.03 µg/mL (≈ 0.054 µM). Moreover, the “MIC (REMA)” value in assay [9] came to 0.015 µg/mL (≈ 0.027 µM).

For `CC(C)/N=c1\cc2n(-c3ccc(Cl)cc3)c3ccccc3nc-2cc1Nc1ccc(Cl)cc1` [Clofazimine], the “MIC (REMA)” value in assay [10] came to 0.03 µg/mL (≈ 0.0634 µM); in assay [11], 0.06 µg/mL (≈ 0.127 µM); in assay [3], 0.12 µg/mL (≈ 0.253 µM); in assay [13], 0.06 µg/mL (≈ 0.127 µM); in assay [4], 0.03 µg/mL (≈ 0.0634 µM); in assay [14], 0.06 µg/mL (≈ 0.127 µM). Besides, the “MIC (REMA)” value in assay [15] stood at 1 µg/mL (≈ 2.11 µM); in assay [5], 0.06 µg/mL (≈ 0.127 µM); in [6], 0.008 µg/mL (≈ 0.0169 µM); in [18] it was 0.12 µg/mL (≈ 0.253 µM); in assay [7], 1 µg/mL (≈ 2.11 µM); in assay [19], 0.12 µg/mL (≈ 0.253 µM).

`C[C@]1(COc2ccc(N3CCC(Oc4ccc(OC(F)(F)F)cc4)CC3)cc2)Cn2cc([N+](=O)[O-])nc2O1` [Delamanid]: the “MIC (REMA)” value worked out at 0.03 µg/mL (≈ 0.0561 µM) in assay [10]; 0.03 µg/mL (≈ 0.0561 µM) in assay [11]; 0.06 µg/mL (≈ 0.112 µM) in assay [1]; 0.008 µg/mL (≈ 0.015 µM) in assay [2]; 0.25 µg/mL (≈ 0.468 µM) in assay [12]; 0.03 µg/mL (≈ 0.0561 µM) in [3]. Besides, the “MIC (REMA)” value in [13] turned out to be 0.015 µg/mL (≈ 0.0281 µM); in assay [4] it was 0.015 µg/mL (≈ 0.0281 µM); in assay [14] it was 0.015 µg/mL (≈ 0.0281 µM); in assay [15], 0.125 µg/mL (≈ 0.234 µM); in assay [5] it was 0.125 µg/mL (≈ 0.234 µM); in assay [16], 0.015 µg/mL (≈ 0.0281 µM). In addition, the “MIC (REMA)” value was greater than 2 µg/mL in assay [17]; 0.03 µg/mL (≈ 0.0561 µM) in [6]; 0.06 µg/mL (≈ 0.112 µM) in [18]; 2 µg/mL (≈ 3.74 µM) in assay [7]; 0.03 µg/mL (≈ 0.0561 µM) in [8]; 0.03 µg/mL (≈ 0.0561 µM) in assay [19]. For the same compound, in assay [9], the “MIC (REMA)” value was found to be 0.015 µg/mL (≈ 0.0281 µM).

In the case of `CC[C@@H](CO)NCCN[C@@H](CC)CO` [Ethambutol], the “MIC (REMA)” value in assay [2] was determined as 0.5 µg/mL (≈ 2.45 µM); in assay [12], 1 µg/mL (≈ 4.89 µM); in assay [3], 1 µg/mL (≈ 4.89 µM); in [13] it was 0.5 µg/mL (≈ 2.45 µM); in assay [4], 4 µg/mL (≈ 19.6 µM); in [14], 1 µg/mL (≈ 4.89 µM). Moreover, the “MIC (REMA)” value is 1 µg/mL (≈ 4.89 µM) in assay [15]; 4 µg/mL (≈ 19.6 µM) in assay [17]; 1 µg/mL (≈ 4.89 µM) in assay [6]; 1 µg/mL (≈ 4.89 µM) in assay [18]; 1 µg/mL (≈ 4.89 µM) in assay [8]; 4 µg/mL (≈ 19.6 µM) in assay [19]. For the same compound, the “MIC (REMA)” value in [9] came out at 0.5 µg/mL (≈ 2.45 µM).

Consider `NNC(=O)c1ccncc1` [Isoniazid], for which the “MIC (REMA)” value is greater than 8 µg/mL in [11]; greater than 8 µg/mL in [1]; greater than 8 µg/mL in assay [2]; 0.03 µg/mL (≈ 0.219 µM) in [13]; greater than 8 µg/mL in assay [4]; greater than 8 µg/mL in assay [14]. Moreover, the “MIC (REMA)” value in [5] was greater than 8 µg/mL; in assay [17], greater than 8 µg/mL; in assay [6], greater than 8 µg/mL; in assay [18] it was 0.06 µg/mL (≈ 0.438 µM); in assay [7], 0.03 µg/mL (≈ 0.219 µM); in assay [19], no more than 0.015 µg/mL. The “MIC (REMA)” value in [9] was determined as 0.125 µg/mL (≈ 0.911 µM).
